Measured values reported in ChEMBL document CHEMBL4219065, “Progress in the Development of Preventative Drugs for Cisplatin-Induced Hearing Loss” (J Med Chem, 2018).

How the values were obtained:
[1] = Terminal half life in rat; conditions: in vivo
[2] = test system: Homo sapiens; assay: Protection against cisplatin-induced ototoxicity in human assessed as reduction in hearing loss administered iv 35 mins prior to cisplatin treatment; format: functional; set-up: scale not given: the % may be the effect or the level left

[14CH3]SCC[C@@H](N)C(=O)O showed a half-life [1] of 34.2 min.
Compound NCCCNCCSP(=O)(O)O [AMIFOSTINE] has an Activity [2] of 43%.
